Measurements from patent US20200009253A1, “Compositions and Methods for Treatment of Infections” (Thompson Cooper Laboratories, LLC, priority 2011, published 2020).

Columns and labels:
[1] = Whitening effect of the nail after brushing the composition onto the nail surface (shows peroxide penetration); assay type: in vivo, human
From the text: (§1) Lower levels of hydrogen peroxide in the present invention can be used to treat infected skin or mucous membranes such as canker sores. Depending on the concentration of peroxide, penetration through a nail will also elicit sensations in certain subjects ranging from tingling to burning, which may be mildly painful at higher concentrations. Embodiments of the invention comprising an optional local anesthetic may be appropriate when using such higher concentrations. Effectiveness may be measured by a reduction of, or complete eradication of, the nail fungus over the course of treatment, and further evidenced by healthy nail growth. On a weight basis, 9% hydrogen peroxide, 21% water, 69.5% isopropyl alcohol, and 0.5% Klucel HF (a thickening agent, a hydroxypropylcellulose polymer), were mixed in a vessel and allowed to thicken. (The source of the peroxide was a 30% peroxide solution.) The composition could easily be brushed onto a nail surface, which dried in approximately 1 minute, and the residual polymer could subsequently be removed by washing in water. […] On a weight basis, 6% hydrogen peroxide, 6% water, 87.5% isopropyl alcohol, and 0.5% Klucel HF, were mixed in a vessel and allowed to thicken. […] The resulting composition differed from that of Example 2a in that there was no isopropyl alcohol or any other highly volatile solvent, the quantity thereof being replaced with water. […]

[2] = Sensation (tingling, burning, pain) under the nail after application; assay type: in vivo, human; conditions: 3% in a solvent system containing a highly volatile solvent; after 15-30 minutes
From the text: as §1

[3] = Solubility of carbamide peroxide in alcohols; assay type: physicochemical; conditions: solid carbamide peroxide
Procedure: On a weight basis, 18.5% carbamide peroxide, 3.0% glycerol, 73.1% ethyl alcohol, 4.5% luviskol VA 64-polyvinylpyrrolidone vinyl alcohol, and 0.9% Klucel HF, were mixed in a vessel and allowed to thicken. The source of peroxide was solid carbamide peroxide, which is only soluble in isopropyl alcohol to about 10% and in ethanol to about 20%, therefore luviskol VA 64-polyvinylpyrrolidone vinyl alcohol is added to supersaturate the carbamide peroxide, and glycerol is added to retain the carbamide peroxide in solution following ethanol evaporation.

SMILES | visual effect on normal finger nail ([1]; 3% aqueous concentration, thin film via a brush) | visual effect on nail ([1]; same amount and 3% concentration in a solvent system containing a highly volatile solvent) | sensation after application [2] | solubility in ethanol [3] | solubility in isopropyl alcohol [3]
OO [hydrogen peroxide, Hydrogen peroxide] | no visual effect | signs of whiteness | a slight tingling sensation may sometimes be felt | – | –
NC(N)=O.OO [carbamide peroxide] | – | – | – | about 20% | about 10%
